In patent US8134015B2, “Compound inhibiting in vivo phosphorous transport and medicine containing the same” (Kyowa Hakko Kirin Co., Ltd., priority 2003, dated 2012):

target: T1, rat NaPi-2b (Rattus norvegicus, UniProt Q9JJ09); test: Sodium-dependent phosphate uptake of Xenopus oocytes which expressed NaPi-2b (32P); assay type: cell-based; settings: Xenopus oocytes expressing rat NaPi-2b, 32P radioactive phosphorus; read-out: IC50 (phosphate uptake inhibitory activity)
T1 construct: expressed in transfected cells; host or cells: Xenopus oocytes injected with cRNA
T1 sequence (Q9JJ09 1-695): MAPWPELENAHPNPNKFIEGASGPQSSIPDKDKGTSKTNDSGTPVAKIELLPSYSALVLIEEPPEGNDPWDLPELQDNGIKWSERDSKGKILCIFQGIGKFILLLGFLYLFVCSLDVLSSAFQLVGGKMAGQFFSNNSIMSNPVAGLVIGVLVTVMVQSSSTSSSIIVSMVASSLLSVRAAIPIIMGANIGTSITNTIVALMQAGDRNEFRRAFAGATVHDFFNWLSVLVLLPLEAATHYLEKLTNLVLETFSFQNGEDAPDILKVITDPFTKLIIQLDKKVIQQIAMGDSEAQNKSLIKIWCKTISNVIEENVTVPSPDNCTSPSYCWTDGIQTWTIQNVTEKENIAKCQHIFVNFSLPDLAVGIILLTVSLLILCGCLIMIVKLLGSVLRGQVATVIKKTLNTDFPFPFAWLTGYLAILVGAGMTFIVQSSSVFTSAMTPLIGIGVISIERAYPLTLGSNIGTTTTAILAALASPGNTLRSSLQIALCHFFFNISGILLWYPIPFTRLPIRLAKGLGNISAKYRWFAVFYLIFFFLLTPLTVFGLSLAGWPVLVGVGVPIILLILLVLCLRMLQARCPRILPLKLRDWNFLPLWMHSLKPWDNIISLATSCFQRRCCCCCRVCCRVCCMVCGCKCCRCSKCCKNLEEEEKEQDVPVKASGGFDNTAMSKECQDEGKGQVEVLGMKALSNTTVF
Method in brief: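 Inhibition at 300 μM and 100 μM was read off one inhibition curve of 32P phosphate uptake. Uptake was measured in Xenopus oocytes cultured 2 days after injection of cRNA for cloned rat NaPi-2b.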

| SMILES | IC50 [µM] |
| --- | --- |
| COc1ccc(C(=O)Nc2ccccc2C(=O)N/N=C/c2ccc(C)cc2)cc1 [Compound 51, 4-Methoxy-N-[2-(4-methyl-benzylidene-hydrazinocarbonyl)-phenyl]-benzamide] | 4.6 |
| Cc1cccc(/C=N/NC(=O)c2cc(Br)ccc2NC(=O)c2ccc(CSCCO)cc2)c1 [Compound 263, N-[4-Bromo-2-(3-methyl-benzylidene-hydrazinocarbonyl)-phenyl]-4-(2-hydroxy-ethylsulfanylmethyl)-benzamide] | < 1 |
| O=C(Nc1ccc(I)cc1C(=O)N/N=C/c1ccc(Cl)c(C(F)(F)F)c1)c1cccc(CN2CCC(N3CCCCC3)CC2)c1 [Compound 487, 3-[1,4′]Bipiperidinyl-1′-ylmethyl-N-[2-(4-chloro-3-trifluoromethyl-benzylidene-hydrazinocarbonyl)-4-iodo-phenyl]-benzamide] | < 3 |
| COc1ccc(/C=N/NC(=O)c2cc(Cl)ccc2NC(=O)c2cccc(CN(C)CCO)c2)cc1 [Compound 401, N-[4-Chloro-2-(4-methoxy-benzylidene-hydrazinocarbonyl)-phenyl]-3-{[(2-hydroxy-ethyl)-methyl-amino]-methyl}-benzamide] | 6.13 |
| COc1cc(OC)cc(C(=O)Nc2ccc(Br)cc2C(=O)NN=Cc2cccc(C)c2)c1 [Compound 118, N-[4-Bromo-2-(3-methyl-benzylidene-hydrazinocarbonyl)-phenyl]-3,5-dimethoxy-benzamide] | 6.07 |
| Cc1ccc(/C=N/NC(=O)c2ccccc2NC(=O)c2ccc(F)cc2)cc1 [Compound 79, 4-Fluoro-N-[2-(4-methyl-benzylidene-hydrazinocarbonyl)-phenyl]-benzamide] | 2.87 |
| CCN(CC)CCNCc1ccc(C(=O)Nc2ccc(Br)cc2C(=O)N/N=C/c2ccc(C)cc2)cc1 [Compound 293, N-[4-Bromo-2-(4-methyl-benzylidene-hydrazinocarbonyl)-phenyl]-4-[(2-diethylamino-ethylamino)-methyl]-benzamide] | 5.59 |
| COc1ccc(/C=N/NC(=O)c2cc(Cl)ccc2NC(=O)c2cccc(CN(CCO)CCO)c2)cc1 [Compound 409, 3-{[Bis-(2-hydroxy-ethyl)-amino]-methyl}-N-[4-chloro-2-(4-methoxy-benzylidene-hydrazinocarbonyl)-phenyl]-benzamide] | 2.52 |
| O=C(Nc1ccc(N2CCCCC2)cc1C(=O)N/N=C/c1ccc(Cl)c(C(F)(F)F)c1)c1cccc(CN2CCc3nc4ncccc4cc3C2)c1 [Compound 897, N-[2-(4-Chloro-3-trifluoromethyl-benzylidene-hydrazinocarbonyl)-4-piperidin-1-yl-phenyl]-3-(7,8-dihydro-5H-1,6,9-triaza-anthracen-6-ylmethyl)-benzamide] | < 0.3 |
| Cc1ccc(/C=N/NC(=O)c2cc(Br)ccc2NC(=O)c2ccc(CN3CCN(CCO)CC3)cc2)cc1C [Compound 316, N-[4-Bromo-2-(3,4-dimethyl-benzylidene-hydrazinocarbonyl)-phenyl]-4-[4-(2-hydroxy-ethyl)-piperazin-1-ylmethyl]-benzamide] | 4.71 |
| CN(C)c1ccc(/C=C/C=N/NC(=O)c2ccccc2NC(=O)c2cccnc2)cc1 [Compound 358, N-{2-[3-(4-Dimethylamino-phenyl)-allylidene-hydrazinocarbonyl]-phenyl}-nicotinamide] | 54.1 |
| CCN(CC)CCNCc1ccc(C(=O)Nc2ccc(Br)cc2C(=O)N/N=C/c2ccc(OC)cc2)cc1 [Compound 298, N-[4-Bromo-2-(4-methoxy-benzylidene-hydrazinocarbonyl)-phenyl]-4-[(2-diethylamino-ethylamino)-methyl]-benzamide] | 9.22 |
| CCN(CC)CCN(C)Cc1cccc(C(=O)Nc2ccc(N3CCSCC3)cc2C(=O)N/N=C/c2ccc(Cl)c(C(F)(F)F)c2)c1 [Compound 929, N-[2-(4-Chloro-3-trifluoromethyl-benzylidene-hydrazinocarbonyl)-4-thiomorpholin-4-yl-phenyl]-3-{[(2-diethylamino-ethyl)-methyl-amino]-methyl}-benzamide] | < 1 |
| COc1ccc(C(=O)Nc2ccccc2C(=O)N/N=C/c2ccc(F)c(Cl)c2)cc1OC [Compound 32, N-[2-(3-Chloro-4-fluoro-benzylidene-hydrazinocarbonyl)-phenyl]-3,4-dimethoxy-benzamide] | 1.95 |
| Cc1cccc(/C=N/NC(=O)c2cc(Cl)ccc2NC(=O)c2ccccn2)c1 [Compound 361, Pyridin-2-carboxylic acid [4-chloro-2-(3-methyl-benzylidene-hydrazinocarbonyl)-phenyl]-amide] | < 1 |
| Cc1ccc(/C=N/NC(=O)c2cccnc2NC(=O)c2cccc(CN(CC(C)O)CC(C)O)c2)cc1C (stereo not shown) [Compound 966, 3-{[Bis-(2-hydroxy-propyl)-amino]-methyl}-N-[3-(3,4-dimethyl-benzylidene-hydrazinocarbonyl)-pyridin-2-yl]-benzamide] | 16 |
| O=C(Nc1ccc(Br)cc1C(=O)N/N=C/c1cccc(F)c1)c1cccc(CSc2nc[nH]n2)c1 [Compound 271, N-[4-Bromo-2-(3-fluoro-benzylidene-hydrazinocarbonyl)-phenyl]-3-(1H-[1,2,4]triazol-3-ylsulfanylmethyl)-benzamide] | 0.21 |
| COc1ccc(C(=O)Nc2ccccc2C(=O)N/N=C/c2ccc(O)c(O)c2)cc1OC [Compound 26, N-[2-(3,4-Dihydroxy-benzylidene-hydrazinocarbonyl)-phenyl]-3,4-dimethoxy-benzamide] | 25.4 |
| COc1ccccc1/C=C/C=N/NC(=O)c1cc(Cl)ccc1NC(=O)c1cccnc1 [Compound 354, N-{4-Chloro-2-[3-(2-methoxy-phenyl)-allylidene-hydrazinocarbonyl]-phenyl}-nicotinamide] | 1.54 |
| CCOCCN(CCOCC)Cc1ccc(C(=O)Nc2ccc(Br)cc2C(=O)N/N=C/c2cccc(C)c2)cc1 [Compound 735, 4-{[Bis-(2-ethoxy-ethyl)-amino]-methyl}-N-[4-bromo-2-(3-methyl-benzylidene-hydrazinocarbonyl)-phenyl]-benzamide] | 18.3 |
| Cc1cccc(/C=N/NC(=O)c2cc(Br)ccc2NC(=O)c2ccc(CSCCCO)cc2)c1 [Compound 275, N-[4-Bromo-2-(3-methyl-benzylidene-hydrazinocarbonyl)-phenyl]-4-(3-hydroxy-propylsulfanylmethyl)-benzamide] | 1.73 |
| O=c1c2cc(Br)ccc2nc(-c2cccc(CSCCO)c2)n1/N=C/c1ccc(Cl)c(C(F)(F)F)c1 [Compound 698, 6-Bromo-3-[(4-chloro-3-trifluoromethyl-benzylidene-)-amino]-2-[3-(2-hydroxy-ethylsulfanylmethyl)-phenyl]-3H-quinazolin-4-one] | < 3 |

same assay, conditions: phosphate uptake, oocytes expressing rat NaPi-2b; 300 μM, determined from inhibition curve

| SMILES | inhibition at 300 µM [%] |
| --- | --- |
| O=C(Nc1ccccc1C(=O)N/N=C/c1cccc(F)c1)c1ccccc1F [Compound 237, 2-Fluoro-N-[2-(3-fluoro-benzylidene-hydrazinocarbonyl)-phenyl]-benzamide] | 33.1 |
| COc1ccc(C(=O)Nc2ccccc2C(=O)N/N=C/c2ccccc2F)cc1OC [Compound 2, N-[2-(2-Fluoro-benzylidene-hydrazinocarbonyl)-phenyl]-3,4-dimethoxy-benzamide] | 77.3 |
| O=C(Nc1ccc(Br)cc1C(=O)NNCc1ccc(Cl)c(C(F)(F)F)c1)c1cccc(CSCCO)c1 [Compound 546, N-{4-Bromo-2-[N′-(4-chloro-3-trifluoromethyl-benzyl)-hydrazinocarbonyl]-phenyl}-3-(2-hydroxy-ethylsulfanylmethyl)-benzamide] | 85.2 |
